Experimental data reported in ChEMBL document CHEMBL1201862, “PubChem BioAssay data set” (2004).
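Values below derive from 48-hour exposures of cells grown in 96-well plates, with endpoints linearly interpolated between the two concentrations bracketing the appropriate inhibition level. The concentration for 50% growth inhibition is given as GI50.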 Calls of active or inactive are those of the source. Cut-off read from the data, not from the text of the source: active = GI50 up to about 1.1 µM and inactive = higher.

Assays:
Test in all cases: DTP human tumour cell line panel, 48 h
[1] = test system: 786-0
[2] = test system: A498
[3] = test system: A549
[4] = test system: ACHN
[5] = test system: CAKI-1
[6] = test system: CCRF-CEM
[7] = test system: COLO 205
[8] = test system: DLD-1
[9] = test system: DMS-273
[10] = test system: EKVX
[11] = test system: HCT-15
[12] = test system: HL-60
[13] = test system: HOP-18
[14] = test system: HOP-92
[15] = test system: HT-29
[16] = test system: IGROV-1
[17] = test system: K562
[18] = test system: KM-20L2
[19] = test system: KM12
[20] = test system: LOX IMVI
[21] = test system: LXFL 529
[22] = test system: M14
[23] = test system: M19-MEL
[24] = test system: MOLT-4
[25] = test system: Malme-3M
[26] = test system: NCI-H23
[27] = test system: NCI-H460
[28] = test system: NCI-H522
[29] = test system: OVCAR-3
[30] = test system: OVCAR-4
[31] = test system: OVCAR-5
[32] = test system: OVCAR-8
[33] = test system: RPMI-8226
[34] = test system: RXF 393
[35] = test system: RXF 631
[36] = test system: SF-268
[37] = test system: SF-295
[38] = test system: SF-539
[39] = test system: SK-MEL-28
[40] = test system: SK-MEL-2
[41] = test system: SK-MEL-5
[42] = test system: SK-OV-3
[43] = test system: SN12C
[44] = test system: SNB-19
[45] = test system: SNB-75
[46] = test system: SW-620
[47] = test system: TK-10
[48] = test system: U-251
[49] = test system: UACC-62
[50] = test system: UO-31
[51] = test system: XF498
[52] = test system: DMS-114
[53] = test system: HCC 2998
[54] = test system: HCT-116
[55] = test system: HOP-62
[56] = test system: NCI-H226
[57] = test system: SNB-78
[58] = test system: SR
[59] = test system: UACC-257

CCCCCCCCSC(=O)NCCCC
GI50 [1]: 38.1 µM (inactive)
GI50 [2]: 54.1 µM (inactive)
GI50 [3]: 38.2 µM (inactive)
GI50 [4]: 34.7 µM (inactive)
GI50 [5]: 36.1 µM (inactive)
GI50 [6]: 28.2 µM (inactive)
GI50 [7]: 54.6 µM (inactive)
GI50 [8]: 35.8 µM (inactive)
GI50 [9]: 35 µM (inactive)
GI50 [10]: 27.8 µM (inactive)
GI50 [11]: 27.2 µM
GI50 [12]: 18.7 µM (inactive)
GI50 [13]: 94.6 µM (inactive)
GI50 [14]: 14.4 µM (inactive)
GI50 [15]: 26.4 µM (inactive)
GI50 [16]: > 100 µM (inactive)
GI50 [17]: 38.2 µM (inactive)
GI50 [18]: 23.7 µM (inactive)
GI50 [19]: 51.8 µM (inactive)
GI50 [20]: 19.9 µM (inactive)
GI50 [21]: 37.8 µM (inactive)
GI50 [22]: 25.8 µM (inactive)
GI50 [23]: 42.1 µM (inactive)
GI50 [24]: 23.2 µM (inactive)
GI50 [25]: 24.5 µM (inactive)
GI50 [26]: 49.7 µM (inactive)
GI50 [27]: 34 µM (inactive)
GI50 [28]: 27.1 µM (inactive)
GI50 [29]: 41.3 µM (inactive)
GI50 [30]: 33.5 µM (inactive)
GI50 [31]: 48.4 µM (inactive)
GI50 [32]: 36.6 µM (inactive)
GI50 [33]: 20.3 µM (inactive)
GI50 [34]: 21.5 µM (inactive)
GI50 [35]: 39.4 µM (inactive)
GI50 [36]: 35.8 µM (inactive)
GI50 [37]: 38.5 µM (inactive)
GI50 [38]: 74 µM (inactive)
GI50 [39]: 29 µM (inactive)
GI50 [40]: 17.7 µM (inactive)
GI50 [41]: 22.2 µM (inactive)
GI50 [42]: > 100 µM (inactive)
GI50 [43]: 33 µM (inactive)
GI50 [44]: 34.6 µM (inactive)
GI50 [45]: 24.6 µM (inactive)
GI50 [46]: 75.3 µM (inactive)
GI50 [47]: 46.7 µM (inactive)
GI50 [48]: 35.5 µM (inactive)
GI50 [49]: 43 µM (inactive)
GI50 [50]: 19.6 µM (inactive)
GI50 [51]: 21.4 µM (inactive)

C=C[C@]1(C)CCC2=C(CCC3C2(C)CCC[C@@]3(C)COC(C)=O)C1 (some centres undefined)
GI50 [1]: 17.3 µM (inactive)
GI50 [2]: 25.4 µM (inactive)
GI50 [3]: 22.8 µM (inactive)
GI50 [4]: 17.5 µM (inactive)
GI50 [5]: 20.5 µM (inactive)
GI50 [6]: 17.6 µM (inactive)
GI50 [7]: 16.3 µM (inactive)
GI50 [8]: 18.5 µM (inactive)
GI50 [52]: 22 µM (inactive)
GI50 [10]: 19.5 µM (inactive)
GI50 [53]: 17.7 µM (inactive)
GI50 [54]: 17.2 µM (inactive)
GI50 [11]: 16.8 µM
GI50 [12]: 19.7 µM (inactive)
GI50 [13]: 25.9 µM (inactive)
GI50 [55]: 22.9 µM (inactive)
GI50 [14]: 19.5 µM (inactive)
GI50 [15]: 18.7 µM (inactive)
GI50 [16]: 20.7 µM (inactive)
GI50 [17]: 16.5 µM (inactive)
GI50 [18]: 17.5 µM (inactive)
GI50 [19]: 19.3 µM (inactive)
GI50 [20]: 18.6 µM (inactive)
GI50 [21]: 17.5 µM (inactive)
GI50 [22]: 20.9 µM (inactive)
GI50 [23]: 21.7 µM (inactive)
GI50 [24]: 14.7 µM (inactive)
GI50 [25]: 25 µM (inactive)
GI50 [56]: 18.2 µM (inactive)
GI50 [26]: 22 µM (inactive)
GI50 [27]: 17.6 µM (inactive)
GI50 [28]: 15.4 µM (inactive)
GI50 [29]: 17.7 µM (inactive)
GI50 [30]: 19.7 µM (inactive)
GI50 [31]: 18.2 µM (inactive)
GI50 [32]: 19.1 µM (inactive)
GI50 [33]: 17.1 µM (inactive)
GI50 [34]: 22 µM (inactive)
GI50 [35]: 16.7 µM (inactive)
GI50 [36]: 23.4 µM (inactive)
GI50 [37]: 17.8 µM (inactive)
GI50 [38]: 20.9 µM (inactive)
GI50 [39]: 33.1 µM (inactive)
GI50 [40]: 14.6 µM (inactive)
GI50 [41]: 16.9 µM (inactive)
GI50 [42]: 18.5 µM (inactive)
GI50 [43]: 16.8 µM (inactive)
GI50 [44]: 17.6 µM (inactive)
GI50 [45]: 18.1 µM (inactive)
GI50 [57]: 18.7 µM (inactive)
GI50 [58]: 18.6 µM (inactive)
GI50 [46]: 19.3 µM (inactive)
GI50 [47]: 25.8 µM (inactive)
GI50 [48]: 17.8 µM (inactive)
GI50 [59]: 25.2 µM (inactive)
GI50 [49]: 21.1 µM (inactive)
GI50 [50]: 18.8 µM (inactive)
GI50 [51]: 19.9 µM (inactive)
